Reference: the supplement of paper PMC4862054

How the values were obtained:
Conditions in all cases: 72 h
BT-549 [1] = test system: BT-549
Description: (§1)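 Drug sensitivity and resistance testing (DSRT) of breast cancer cell lines in 384-well plates, 5 concentrations in 10-fold dilutions over a compound-specific 10,000-fold range. After 72 h, cytotoxicity was read by CellTox Green fluorescence and viability by CellTiter-Glo luminescence (multiplexed), normalised to DMSO and benzethonium chloride controls. EC50 is the inflection point of the fitted dose-response curve (bottom asymptote free, so it can be relative for partial curves) and is censored at the highest tested concentration. Rows with DSS 0 (no meaningful response) were excluded.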

MDA-MB-231 [2] = test system: MDA-MB-231
Description: as §1

CAL-51 [3] = test system: CAL-51
Description: as §1

BT-474 [4] = test system: BT-474
Description: as §1

Hs578T [5] = test system: Hs578T
Description: as §1

MFM-223 [6] = test system: MFM-223
Description: as §1

CAL-120 [7] = test system: CAL-120
Description: as §1

HCC1937 [8] = test system: HCC1937
Method in brief: (§2)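 To measure viability, fluorescence at 560/590 nm was read after 2.5 µl CellTiter-Blue had been added for 2 h at 37 °C. Cells from breast cancer lines had been seeded in 20 µl suspension onto 384-well plates pre-loaded with compound dissolved in 5 µl medium and kept for 72 h. EC50 comes from a fitted percent-inhibition dose-response curve censored at the highest concentration, after per-plate normalisation to vehicle and a positive kill control, Z'-factor checks, and removal of rows with zero drug sensitivity score.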

SK-BR-3 [9] = test system: SK-BR-3
Method in brief: as §2

BT-549 [10] = test system: BT-549; remark: listed apart in the source
Method in brief: as §2

MDA-MB-436 [11] = test system: MDA-MB-436
Method in brief: as §2

MDA-MB-231 [12] = test system: MDA-MB-231; remark: listed apart in the source
Method in brief: as §2

MDA-MB-468 [13] = test system: MDA-MB-468
Method in brief: as §2

BT-474 [14] = test system: BT-474; remark: listed apart in the source
Method in brief: as §2

Hs578T [15] = test system: Hs578T; remark: listed apart in the source
Method in brief: as §2

HCC1143 [16] = test system: HCC1143
Method in brief: as §2

CAL-120 [17] = test system: CAL-120; remark: listed apart in the source
Method in brief: as §2

MDA-MB-453 [18] = test system: MDA-MB-453
Method in brief: (§3)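 Per-plate normalisation used 0.1 % DMSO and a positive kill control. Breast cancer cell lines (20 µl suspension) were seeded into 384-well plates containing compound at 5 concentrations in 10-fold steps across a compound-specific 10,000-fold range, incubated for 72 h, and read first for CellTox Green fluorescence (485/520 nm), then for CellTiter-Glo luminescence. EC50 was fitted from the dose-response curves and censored at the top concentration.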

SK-BR-3 [19] = test system: SK-BR-3; remark: listed apart in the source
Method in brief: as §3

CAL-148 [20] = test system: CAL-148
Method in brief: as §3

BT-549 [21] = test system: BT-549; remark: listed apart in the source
Method in brief: as §3

MDA-MB-436 [22] = test system: MDA-MB-436; remark: listed apart in the source
Method in brief: as §3

MDA-MB-231 [23] = test system: MDA-MB-231; remark: listed apart in the source
Method in brief: as §3

CAL-85-1 [24] = test system: CAL-85-1
Method in brief: as §3

DU-4475 [25] = test system: DU-4475
Method in brief: as §3

HCC1599 [26] = test system: HCC1599
Method in brief: as §3

CAL-51 [27] = test system: CAL-51; remark: listed apart in the source
Method in brief: as §3

Hs578T [28] = test system: Hs578T; remark: listed apart in the source
Method in brief: as §3

HCC1143 [29] = test system: HCC1143; remark: listed apart in the source
Method in brief: as §3

MFM-223 [30] = test system: MFM-223; remark: listed apart in the source
Method in brief: as §3

CAL-120 [31] = test system: CAL-120; remark: listed apart in the source
Method in brief: as §3

MDA-MB-453 [32] = test system: MDA-MB-453; remark: listed apart in the source
Method in brief: as §2

HDQ-P1 = test system: HDQ-P1
Method in brief: as §2

CAL-85-1 [33] = test system: CAL-85-1; remark: listed apart in the source
Method in brief: as §2

DU-4475 [34] = test system: DU-4475; remark: listed apart in the source
Method in brief: as §2

CAL-51 [35] = test system: CAL-51; remark: listed apart in the source
Method in brief: as §2

MDA-MB-436 [36] = test system: MDA-MB-436; remark: listed apart in the source
Description: as §1

MCF-10A = test system: MCF-10A
Method in brief: as §3

HCC1937 [37] = test system: HCC1937; remark: listed apart in the source
Description: as §1

CAL-148 [38] = test system: CAL-148; remark: listed apart in the source
Description: as §1

CAL-85-1 [39] = test system: CAL-85-1; remark: listed apart in the source
Description: as §1

MDA-MB-468 [40] = test system: MDA-MB-468; remark: listed apart in the source
Description: as §1

HCC1599 [41] = test system: HCC1599; remark: listed apart in the source
Method in brief: as §2

MFM-223 [42] = test system: MFM-223; remark: listed apart in the source
Method in brief: as §2

HCC1937 [43] = test system: HCC1937; remark: listed apart in the source
Method in brief: as §3

CAL-148 [44] = test system: CAL-148; remark: listed apart in the source
Method in brief: as §2

Compound	EC50, CellTox Green (MDA-MB-231 [2]) [nM]	EC50, CellTox Green (CAL-51 [3]) [nM]	EC50, CellTiter-Blue viability (HCC1937 [8]) [nM]	EC50, CellTiter-Blue viability (SK-BR-3 [9]) [nM]	EC50, CellTiter-Blue viability (BT-549 [10]) [nM]	EC50, CellTiter-Blue viability (MDA-MB-231 [12]) [nM]	EC50, CellTiter-Blue viability (MDA-MB-468 [13]) [nM]	EC50, CellTiter-Blue viability (Hs578T [15]) [nM]	EC50, CellTiter-Blue viability (HCC1143 [16]) [nM]	EC50, CellTiter-Blue viability (CAL-120 [17]) [nM]	EC50, CellTiter-Glo (MDA-MB-453 [18]) [nM]	EC50, CellTiter-Glo (SK-BR-3 [19]) [nM]	EC50, CellTiter-Glo (CAL-148 [20]) [nM]	EC50, CellTiter-Glo (BT-549 [21]) [nM]	EC50, CellTiter-Glo (MDA-MB-436 [22]) [nM]	EC50, CellTiter-Glo (MDA-MB-231 [23]) [nM]	EC50, CellTiter-Glo (CAL-85-1 [24]) [nM]	EC50, CellTiter-Glo (HCC1143 [29]) [nM]	EC50, CellTiter-Glo (CAL-120 [31]) [nM]	EC50, CellTiter-Blue viability (MDA-MB-453 [32]) [nM]	further results
COc1cc2c(cc1O)CC[C@@H]1[C@@H]2CC[C@]2(C)[C@@H](O)CC[C@@H]12 [2-methoxyestradiol]	756	4060	820	5800	1020	432	3190	1210	5620	1510	543	3130	7660	251	1060	938	2220	1300	1020	552	EC50, CellTox Green (BT-549 [1]): > 10000 nM; EC50, CellTox Green (BT-474 [4]): 370 nM; EC50, CellTox Green (Hs578T [5]): 1820 nM; EC50, CellTox Green (MFM-223 [6]): 660 nM; EC50, CellTox Green (CAL-120 [7]): 6410 nM; EC50, CellTiter-Blue viability (MDA-MB-436 [11]): 697 nM; EC50, CellTiter-Blue viability (BT-474 [14]): 747 nM; EC50, CellTiter-Glo (DU-4475 [25]): 4530 nM; EC50, CellTiter-Glo (HCC1599 [26]): 6410 nM; EC50, CellTiter-Glo (CAL-51 [27]): 4930 nM; EC50, CellTiter-Glo (Hs578T [28]): 1400 nM; EC50, CellTiter-Glo (MFM-223 [30]): 1830 nM; EC50, CellTiter-Blue viability (HDQ-P1): 4220 nM; EC50, CellTiter-Blue viability (CAL-85-1 [33]): 1280 nM; EC50, CellTiter-Blue viability (DU-4475 [34]): 1730 nM; EC50, CellTiter-Blue viability (CAL-51 [35]): 2450 nM
C[C@]1(O)C[C@@H](c2nc(-c3ccc4ccc(-c5ccccc5)nc4c3)c3c(N)nccn32)C1 [Linsitinib]	> 10000										892	1460					3550	> 10000	8040		EC50, CellTox Green (MDA-MB-436 [36]): 6000 nM; EC50, CellTiter-Glo (HCC1599 [26]): 1940 nM; EC50, CellTiter-Glo (MCF-10A): 645 nM
Cc1sc2c(c1C)C(c1ccc(Cl)cc1)=N[C@@H](CC(=O)OC(C)(C)C)c1nnc(C)n1-2 [(+)JQ1]		2330	468	337	320	265	871	122	354	114	447	494	920	167	749	653	316	753	231	172	EC50, CellTox Green (HCC1937 [37]): 10 nM; EC50, CellTox Green (CAL-148 [38]): 687 nM; EC50, CellTox Green (CAL-85-1 [39]): 2020 nM; EC50, CellTox Green (MDA-MB-468 [40]): 1830 nM; EC50, CellTiter-Blue viability (HCC1599 [41]): 406 nM; EC50, CellTiter-Blue viability (MFM-223 [42]): 243 nM; EC50, CellTiter-Glo (HCC1937 [43]): 720 nM; EC50, CellTiter-Glo (DU-4475 [25]): 956 nM; EC50, CellTiter-Glo (CAL-51 [27]): 7440 nM; EC50, CellTiter-Glo (Hs578T [28]): 126 nM; EC50, CellTiter-Glo (MFM-223 [30]): 481 nM; EC50, CellTiter-Glo (MCF-10A): 254 nM; EC50, CellTiter-Blue viability (CAL-148 [44]): 676 nM; EC50, CellTiter-Blue viability (CAL-85-1 [33]): 254 nM; EC50, CellTiter-Blue viability (DU-4475 [34]): 339 nM; EC50, CellTiter-Blue viability (CAL-51 [35]): 1040 nM
CC[C@@H]1C(=O)OC[C@@H]1Cc1cncn1C [Pilocarpine]																				38300	
